Measured values: US20260034123A1 (Cedilla Therapeutics, Inc., priority 2022, published 2026)

Key:
Kuramochi cells RB-WT = assay: IncuCyte Kuramochi cell proliferation assay, RB-WT; type: cell-based; details: 72 hours, cell count
Description: (§1) IncuCyte® assay was used to measure the effect of disclosed compounds on cell proliferation. Fluorescent microscopy images of cells were taken immediately after compound treatment and 72 hours later. Image analysis software was used to obtain cell counts as a function of compound concentration. Kuramochi cells labeled with mApple-H2B were seeded on 384-well assay-ready plates. Plates were placed in an IncuCyte® (Sartorius) and scanned at 0 and 72 hours. IncuCyte® software was used to count the number of fluorescent nuclei in each well. The fold change in cell count from 0 to 72 hours in wells treated with increasing compounds concentrations (10 pts, 1/2 log dilution, 20 µM top concentration) was normalized to DMSO control wells. The normalized cell counts were fit with dose response curves and a GI50 was calculated.

CDK2/Cyclin E1 = CDK2/Cyclin E1 (Homo sapiens, UniProt P24941); assay: ADP-Glo Luminescent Kinase Assay (CDK2/E1-37C); type: biochemical; details: 0.18 nM CDK2/Cyclin E1, 100 μM ATP, Histone H1, 37° C.; read-out: ADPGLO (CDK2/E1-37C): IC50
Description: Inhibition of CDK2/Cyclin E1 activity by the presence of small molecules was evaluated using ADP-Glo Luminescent Kinase Assay (Promega). Activated CDK2/Cyclin E1 was incubated with its substrate Histone H1 (SignalChem H10-54N) in the kinase reaction buffer (100 μM ATP, 50 mM HEPES pH 7.5, 10 mM MgCl2, 1 mM EDTA, 2 mM DTT, 0.01% Brij35, 0.5 mg/mL BSA). Luminescence was recorded with an Envision plate reader (PerkinElmer).
Dose titrations of inhibitors in 100% DMSO were combined with 0.36 nM CDK2/Cyclin E1 in reaction buffer. The mixtures were incubated for 60 minutes at 37° C. before the addition of ATP and Histone H1 substrate to initiate the kinase reaction. The final conditions were 0.18 nM CDK2/Cyclin E1, 100 μM ATP, and […] Histone H1. The reactions were incubated at 37° C. for 90 minutes before being stopped with the addition of ADP-Glo reagent. This mixture was incubated at room temperature for 60 minutes before Kinase Detection Solution is added to generate luminescence. The stopped reactions were analyzed on an Envision plate reader. The conversion ratios were normalized to yield % activity, plotted against compound concentration, and fit to a four-parameter equation to determine the IC50 for each compound.

Kuramochi cells RB-KO = assay: IncuCyte Kuramochi cell proliferation assay, RB-KO; type: cell-based; details: 72 hours, cell count, batch mean
Description: as §1

| IC50 (CDK2/Cyclin E1) [µM] | Compound | IC50 (Kuramochi cells RB-WT) [µM] | IC50 (Kuramochi cells RB-KO) [µM] |
| --- | --- | --- | --- |
| ≤ 0.5 | CC(C(=O)N1CC2(CN(C(=O)c3cnn(Cc4ccc(F)cc4)c3)C[C@H]2COCc2cccc(C3CCC(C(F)(F)F)CC3)c2C(=O)O)C1)C(F)(F)F (stereo partly drawn) [Compound I-97, 2-((((8S)-6-(1-(4-fluorobenzyl)-1H-pyrazole-4-carbonyl)-2-(3,3,3-trifluoro-2-methylpropanoyl)-2,6-diazaspiro[3.4]octan-8-yl)methoxy)methyl)-6-(4-(trifluoromethyl)cyclohexyl)benzoic acid] | 5 to 10 | > 10 |
| 0.5 to 5 | O=C(O)c1c(COC[C@@H]2CN(C(=O)c3cnn(Cc4ccc(F)cc4)c3)CC23CN(C(=O)CC2(C(F)(F)F)CC2)C3)cccc1C1CCC(C(F)(F)F)CC1 (stereo partly drawn) [Compound I-98] | > 10 | > 10 |
| > 10 | O=C(O)c1c(COC[C@@H]2CN(C(=O)c3cnn(Cc4ccc(F)cc4)c3)CC23CN(C(=O)C2COC2)C3)cccc1C1CCC(C(F)(F)F)CC1 (stereo partly drawn) [Compound I-99] | > 10 | > 10 |
| ≤ 0.5 | CC(C(=O)N1CC2(CN(C(=O)c3cnn(Cc4ccc(F)cc4)c3)C[C@H]2COCc2cccc(C3CCC(C(F)(F)F)CC3)c2C(=O)O)C1)(C(F)(F)F)C(F)(F)F (stereo partly drawn) [Compound I-100, (S)-2-(((6-(1-(4-fluorobenzyl)-1H-pyrazole-4-carbonyl)-2-(3,3,3-trifluoro-2-methyl-2-(trifluoromethyl)propanoyl)-2,6-diazaspiro[3.4]octan-8-yl)methoxy)methyl)-6-(4-(trifluoromethyl)cyclohexyl)benzoic acid] | > 10 | > 10 |
| ≤ 0.5 | CC(C)(C(=O)N1CC2(CN(C(=O)c3cnn(Cc4ccc(F)cc4)c3)C[C@H]2COCc2cccc(C3CCC(F)(F)CC3)c2C(=O)O)C1)C(F)(F)F [Compound I-101, (S)-2-(4,4-difluorocyclohexyl)-6-(((6-(1-(4-fluorobenzyl)-1H-pyrazole-4-carbonyl)-2-(3,3,3-trifluoro-2,2-dimethylpropanoyl)-2,6-diazaspiro[3.4]octan-8-yl)methoxy)methyl)benzoic acid] | 0.5 to 5 | > 10 |
| ≤ 0.5 | O=C(O)Cc1c(COC[C@@H]2CN(C(=O)c3cnn(Cc4ccc(F)cc4)c3)CC23CN(C(=O)C2(C(F)(F)F)CC2)C3)cccc1C1CCC(C(F)(F)F)CC1 (stereo partly drawn) [Compound I-102, (S)-2-(2-(((6-(1-(4-fluorobenzyl)-1H-pyrazole-4-carbonyl)-2-(1-(trifluoromethyl)cyclopropane-1-carbonyl)-2,6-diazaspiro[3.4]octan-8-yl)methoxy)methyl)-6-(4-(trifluoromethyl)cyclohexyl)phenyl)acetic acid] | 0.5 to 5 | > 10 |
| 0.5 to 5 | CC(C)(Oc1c(COC[C@@H]2CN(C(=O)c3cnn(Cc4ccc(F)cc4)c3)CC23CN(C(=O)C2(C(F)(F)F)CC2)C3)cccc1C1CCC(C(F)(F)F)CC1)C(=O)O (stereo partly drawn) [Compound I-108] | > 10 | > 10 |
| ≤ 0.5 | O=C(O)COc1c(COC[C@@H]2CN(C(=O)c3cnn(Cc4ccc(F)cc4)c3)CC23CN(C(=O)C2(C(F)(F)F)CC2)C3)cccc1C1CCC(C(F)(F)F)CC1 (stereo partly drawn) [Compound I-109, (S)-2-(2-(((6-(1-(4-fluorobenzyl)-1H-pyrazole-4-carbonyl)-2-(1-(trifluoromethyl)cyclopropane-1-carbonyl)-2,6-diazaspiro[3.4]octan-8-yl)methoxy)methyl)-6-(4-(trifluoromethyl)cyclohexyl)phenoxy)acetic acid] | > 10 | > 10 |
| 0.5 to 5 | O=C(O)c1ccc(C2CCC(C(F)(F)F)CC2)cc1COC[C@@H]1CN(C(=O)c2cnn(Cc3ccc(F)cc3)c2)CC12CN(C(=O)C1(C(F)(F)F)CC1)C2 (stereo partly drawn) [Compound I-111] | > 10 | > 10 |
| ≤ 0.5 | O=C(O)c1ccccc1Cn1cc(C(=O)N2CC(COCc3cccc(C4CCC(C(F)(F)F)CC4)c3C(F)(F)F)C3(C2)CN(C(=O)C2(C(F)(F)F)CC2)C3)cn1 (stereo not drawn) [Compound I-114] | > 10 | > 10 |
| ≤ 0.5 | CC1(C)C[C@@H]1C(=O)N1CC2(CN(C(=O)c3cnn(Cc4ccc(F)cc4C(F)(F)F)c3)C[C@H]2COCc2cccc(C3CCC(F)(F)CC3)c2C(=O)O)C1 [Compound I-118, 2-(4,4-difluorocyclohexyl)-6-(((2-((S)-2,2-dimethylcyclopropane-1-carbonyl)-6-(1-(4-fluoro-2-(trifluoromethyl)benzyl)-1H-pyrazole-4-carbonyl)-2,6-diazaspiro[3.4]octan-8-yl)methoxy)methyl)benzoic acid] | 5 to 10 | > 10 |
| ≤ 0.5 | CC1(C)C[C@@H]1C(=O)N1CC2(CN(C(=O)c3cnn(Cc4ccc(F)cc4)c3)C[C@H]2COCc2c(F)ccc(C3CCC(F)(F)CC3)c2C(=O)O)C1 [Compound I-119, 6-(4,4-difluorocyclohexyl)-2-(((2-((S)-2,2-dimethylcyclopropane-1-carbonyl)-6-(1-(4-fluorobenzyl)-1H-pyrazole-4-carbonyl)-2,6-diazaspiro[3.4]octan-8-yl)methoxy)methyl)-3-fluorobenzoic acid] | 0.5 to 5 | > 10 |
| ≤ 0.5 | CC(C)(C(=O)N1CC2(CN(C(=O)c3cnn(Cc4ccc(F)cc4C(F)(F)F)c3)C[C@H]2COCc2cccc(C3CCC(F)(F)CC3)c2C(=O)O)C1)C(F)(F)F [Compound I-127, (S)-2-(4,4-difluorocyclohexyl)-6-(((6-(1-(4-fluoro-2-(trifluoromethyl)benzyl)-1H-pyrazole-4-carbonyl)-2-(3,3,3-trifluoro-2,2-dimethylpropanoyl)-2,6-diazaspiro[3.4]octan-8-yl)methoxy)methyl)benzoic acid] | 0.5 to 5 | > 10 |
| ≤ 0.5 | CC1(C)C[C@@H]1C(=O)N1CC2(CN(C(=O)c3cnn(Cc4ccc(F)cc4)c3)CC2COc2cccc(C3CCC(F)(F)CC3)c2C(=O)O)C1 (stereo partly drawn) [Compound I-128, 2-(4,4-difluorocyclohexyl)-6-((2-((S)-2,2-dimethylcyclopropane-1-carbonyl)-6-(1-(4-fluorobenzyl)-1H-pyrazole-4-carbonyl)-2,6-diazaspiro[3.4]octan-8-yl)methoxy)benzoic acid] | > 10 | > 10 |
| ≤ 0.5 | CC1(C)C[C@@H]1C(=O)N1CC2(CN(C(=O)c3cnn(Cc4ccc(F)cc4)c3)CC2COc2cccc(CC3CCC(F)(F)CC3)c2C(=O)O)C1 (stereo partly drawn) [Compound I-129] | > 10 | > 10 |
| ≤ 0.5 | CC1(C)C[C@@H]1C(=O)N1CC2(CN(C(=O)c3cnn(Cc4ccc(F)cc4)c3)CC2COc2cccc(OC3CCC(F)(F)CC3)c2C(=O)O)C1 (stereo partly drawn) [Compound I-130, 2-((4,4-difluorocyclohexyl)oxy)-6-((2-((S)-2,2-dimethylcyclopropane-1-carbonyl)-6-(1-(4-fluorobenzyl)-1H-pyrazole-4-carbonyl)-2,6-diazaspiro[3.4]octan-8-yl)methoxy)benzoic acid] | > 10 | > 10 |
| ≤ 0.5 | CC(C)(C(=O)N1CC2(CN(C(=O)c3cnn(Cc4ccc(F)cc4)c3)C[C@H]2COCc2cccc(N3CCC(C(F)(F)F)CC3)c2C(=O)O)C1)C(F)(F)F [I′-19, (S)-2-(((6-(1-(4-fluorobenzyl)-1H-pyrazole-4-carbonyl)-2-(3,3,3-trifluoro-2,2-dimethylpropanoyl)-2,6-diazaspiro[3.4]octan-8-yl)methoxy)methyl)-6-(4-(trifluoromethyl)piperidin-1-yl)benzoic acid] | 0.5 to 5 | > 10 |
| ≤ 0.5 | CC(C)(C(=O)N1CC2(CN(C(=O)c3cnn(Cc4ccc(F)cc4)c3)C[C@H]2COCc2c(C(F)(F)F)ccc(C3CCC(F)(F)CC3)c2C(=O)O)C1)C(F)(F)F [I′-20] | 5 to 10 | > 10 |
| ≤ 0.5 | CC(C)(C(=O)N1CC2(CN(C(=O)c3cnn(Cc4ccc(F)cc4)c3)C[C@H]2COCc2ccc(F)c(C3CCC(F)(F)CC3)c2C(=O)O)C1)C(F)(F)F [I′-21] | > 10 | > 10 |
| ≤ 0.5 | CC(C)(C(=O)N1CC2(CN(C(=O)c3cnn(Cc4ccc(F)cc4)c3)C[C@H]2COCc2cccc(C3CCC(F)(F)CC3)c2C(=O)NCCN2CCOCC2)C1)C(F)(F)F [I′-22] | > 10 | > 10 |
